Experimental data: US20230146675A1, “PYRIMIDO[5,4-d]PYRIMIDINE DERIVATIVES AS ENT INHIBITORS FOR THE TREATMENT OF CANCERS, AND COMBINATION THEREOF WITH ADENOSINE RECEPTOR ANTAGONISTS” (ITEOS BELGIUM SA, priority 2020, published 2023)
Where two headings read alike, the source gives them in different places.

Tests used:
[1] = biological target: T1, human ENT1 (Homo sapiens, UniProt Q99808); test: ENT1 binding assay (competition with Sahenta-DY647 on JAR cells); design: JAR cells expressing ENT1 were bought from ATCC; host or cells: JAR cells; settings: binned IC50
T1 sequence (Q99808 1-456): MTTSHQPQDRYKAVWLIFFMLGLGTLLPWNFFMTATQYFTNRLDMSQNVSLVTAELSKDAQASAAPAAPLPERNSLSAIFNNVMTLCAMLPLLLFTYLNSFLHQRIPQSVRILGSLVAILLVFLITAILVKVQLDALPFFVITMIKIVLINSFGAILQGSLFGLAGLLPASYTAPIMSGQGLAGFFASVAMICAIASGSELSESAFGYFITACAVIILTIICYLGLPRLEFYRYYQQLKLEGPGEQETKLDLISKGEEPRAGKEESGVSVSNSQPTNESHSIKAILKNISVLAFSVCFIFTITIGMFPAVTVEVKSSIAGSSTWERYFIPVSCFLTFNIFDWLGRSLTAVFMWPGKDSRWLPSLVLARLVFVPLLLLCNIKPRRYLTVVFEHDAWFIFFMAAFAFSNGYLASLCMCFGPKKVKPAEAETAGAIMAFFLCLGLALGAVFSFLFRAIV
How it was run: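 JAR cells were incubated with test compounds and the fluorescent ligand Sahenta-DY647 in competition. Plates were washed twice by centrifugation (4 min, 400 rcf, 4 °C). Binding potency was derived from the final fluorescence.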

[2] = biological target: T1, human ENT1; test: Uridine transport inhibition assay (3H-uridine uptake, MDCKII-ENT1-LV cells); format: cell-based; settings: 3H-uridine (1 μM), 1 min at 25° C.
Text: Purpose. The aim of this study was to determine the potency of equilibrative nucleoside transporter 1 (ENT1) inhibitors by measuring ENT1-mediated transport is the cellular uptake assay. The human ENT1 transporter can be stably expressed in Madin-Darby Canine Kidney II (MDCKII) cells via transduction. Uridine is efficiently transported by ENT1 and is used as probe in the assay as 3H-uridine. The interaction is detected as the modulation of the initial rate of 3H-uridine transport by human ENT1 into MDCKII-ENT1-LV cells stably expressing ENT1 uptake transporter.

[3] = system: stimulated primary human T cells; test: T cell proliferation assay (rescue of proliferation in presence of 100 uM ATP); format: cell-based
Protocol: Purpose. The aim of this study was to determine the potency of equilibrative nucleoside transporter 1 (ENT1) inhibitors to rescue proliferation by stimulated primary human T cells incubated in the presence of 100 uM Adenosine triphosphate (ATP) with: • Condition A: X-VIVO15 • Condition B: X-VIVO15, 2% Human Serum Albumine (HSA) and 0.1% α-1-Acid Glycoprotein (AAG)
Method. Cryopreserved purified human CD3+ T cells were thawed and washed twice with RPMI1640 medium, UltraGlutamine containing 10% hiFBS.
Cells were suspended in PBS containing 10% hiFBS. Cells were stained with CFSE by adding 2 μM solution in PBS, to get a final 1 μM CFSE solution. Cells were incubated while rotating for 5 minutes. Reaction was stopped by adding PBS with 10% FBS and cells were centrifuged for 5 minutes at 1500 rpm.
Cells were resuspended at 1.6×10^6 cells/mL, either in X-VIVO15 medium or in 4% Human Serum Albumin and 0.2% α-1-Acid Glycoprotein. 50 μL of cell suspension (8×10^4 T cells) was added to wells of sterile round-bottom 96-well plates. Cells were activated by adding 50 μL of anti-CD3 anti-CD28 coated microbeads, suspended either in XVIVO-15 medium or in 4% HSA and 0.2% α-1-Acid Glycoprotein, at a ratio of one microbead per two cells.
Serial dilutions of the ENT1 inhibitors were prepared in X-VIVO15 from 10 mM stock solutions in DMSO, and 50 μL was added to the wells.
ATP powder was diluted in X-VIVO15, and 50 μL of this compound was added to the wells to reach a final assay concentration of 100 μM. Final volume of 200 μL.
The experiments were also performed in 384 well plates—all volumes reduced by a factor of 4 ([…]) with a final volume of 50 μL.
Experiments were performed in duplicate. The cells were placed in a 37° C. humidified tissue culture incubator with 5% CO2 for 72 hours for 96 well plates, 96 hours for 384 well plates. After 72 or 96 hours, proliferation was measured determined by CFSE dilution via flow cytometry.
Results. Compounds of the invention have good ENT1 inhibitory properties.

[4] = Condition A: X-VIVO15, read-out: TCell proliferation (Condition A) IC50
[5] = Condition B: X-VIVO15, 2% HSA and 0.1% AAG, read-out: TCell proliferation (Condition B) IC50

| IC50 [1] | IC50 [2] | Compound | IC50 [3, 4] | IC50 [3, 5] |
| --- | --- | --- | --- | --- |
| < 100 nM | < 100 nM | CCCN(C)c1nc(N(CCOC)CCOC)nc2c(N3CCC(OC)CC3)nc(N(CCOC)CCOC)nc12 [Compound 68, N2,N2,N6,N6-tetrakis(2-methoxyethyl)-8-(4-methoxypiperidin-1-yl)-N4-methyl-N4-propylpyrimido[5,4-d]pyrimidine-2,4,6-triamine] | 500 to 1000 nM | 500 to 1000 nM |
| < 100 nM | < 100 nM | COCCN(CCOC)c1nc(N2CCC(OC)CC2)c2nc(N(CCOC)CCOC)nc(N(C)Cc3cccnc3)c2n1 [Compound 81, N2,N2,N6,N6-tetrakis(2-methoxyethyl)-8-(4-methoxypiperidin-1-yl)-N4-methyl-N4-(pyridin-3-ylmethyl)pyrimido[5,4-d]pyrimidine-2,4,6-triamine] | 100 to 500 nM | 500 to 1000 nM |
| < 100 nM | < 100 nM | COCCN(CCOC)c1nc(N2CCC(OC)CC2)c2nc(N(CCOC)CCOC)nc(NCc3ccc(F)c(C#N)c3)c2n1 [Compound 149, 5-(((2,6-bis(bis(2-methoxyethyl)amino)-8-(4-methoxypiperidin-1-yl)pyrimido[5,4-d]pyrimidin-4-yl)amino)methyl)-2-fluorobenzonitrile] | 100 to 500 nM | 100 to 500 nM |
| < 100 nM | < 100 nM | COCCN(CCOC)c1nc(N2CCC(OC)CC2)c2nc(N(CCOC)CCOC)nc(N(C)Cc3cccc(OC)c3)c2n1 [Compound 171, N4-(3-methoxybenzyl)-N2,N2,N6,N6-tetrakis(2-methoxyethyl)-8-(4-methoxypiperidin-1-yl)-N4-methylpyrimido[5,4-d]pyrimidine-2,4,6-triamine] | 100 to 500 nM | 100 to 500 nM |
| < 100 nM | < 100 nM | COCCN(CCOC)c1nc(N2CCC(OC)CC2)c2nc(N(CCOC)Cc3cc(OC)c(OC)c(OC)c3)nc(N3CCC(OC)CC3)c2n1 [Compound 184, N2,N2,N6-tris(2-methoxyethyl)-4,8-bis(4-methoxypiperidin-1-yl)-N6-(3,4,5-trimethoxybenzyl)pyrimido[5,4-d]pyrimidine-2,6-diamine] | < 100 nM | < 100 nM |
| < 100 nM | < 100 nM | COCCN(CCOC)c1nc(N2CCC(OC)CC2)c2nc(N(CCO)Cc3cc(OC)c(OC)c(OC)c3)nc(N3CCC(OC)CC3)c2n1 [Compound 186, 2-((6-(bis(2-methoxyethyl)amino)-4,8-bis(4-methoxypiperidin-1-yl)pyrimido[5,4-d]pyrimidin-2-yl)(3,4,5-trimethoxybenzyl)amino)ethanol] | < 100 nM | 100 to 500 nM |
| < 100 nM |  | COCCN(Cc1ccc(C(=O)O)c(C(F)(F)F)c1)c1nc(N2CCN(C)C(=O)C2)c2nc(N(CCOC)CCOC)nc(N3CCC(OC)CC3)c2n1 [Compound 339, 4-(((6-(bis(2-methoxyethyl)amino)-8-(4-methoxypiperidin-1-yl)-4-(4-methyl-3-oxopiperazin-1-yl)pyrimido[5,4-d]pyrimidin-2-yl)(2-methoxyethyl)amino)methyl)-2-(trifluoromethyl)benzoic acid] |  |  |
| < 100 nM |  | COCCN(Cc1cc(F)c(C(=O)O)c(F)c1)c1nc(N2CCN(C)C(=O)C2)c2nc(N(CCOC)CCOC)nc(N3CCC(OC)CC3)c2n1 [Compound 340, 4-(((6-(bis(2-methoxyethyl)amino)-8-(4-methoxypiperidin-1-yl)-4-(4-methyl-3-oxopiperazin-1-yl)pyrimido[5,4-d]pyrimidin-2-yl)(2-methoxyethyl)amino)methyl)-2,6-difluorobenzoic acid] |  |  |
